In patent US6716603B2, “Nucleic acids encoding a chloride channel protein” (Genaera Corporation, priority 1998, dated 2004):

B1: mIL-9: recombinant murine IL-9 (protein, UniProt P15247 19-144, looked up)
Interleukin-9: QRCSTTWGIRDTNYLIENLKDDPPSKCSCSGNVTSCLCLSVPTDDCTTPCYREGLLQLTNATQKSRLLPVFHRVKRIVEVLKNITCPSFSCEKPCNQTMAGNTLSFLKSLLGTFQKTEMQRQKSRP

Legend:
IL-9 induced eotaxin = IL-9 induced eotaxin production in murine primary lung cultures (eotaxin ELISA); type: cell-based, mouse; conditions: 100 μM channel blocker, FVB primary lung cultures with mIL-9, FIG. 18
From the text: IL-9 is known to induce eotaxin from lung epithelial cells (Dong, et.al., submitted for publication, Eur. J. Immunol.). In situ expression analysis of IL-9 transgenic mice found ICACC-1 expression to be predominant in airway epithelial cells. These epithelial cells also produce eotaxin, and eotaxin can be induced by IL-9 in these cells as well as primary lung cultures from a variety of different mouse strains. Because eotaxin and ICACC-1 are both induced by IL-9 in lung epithelial cells, it is possible that inhibiting ICACC-1 can inhibit eotaxin or other cytokines such as IL-4 or IL-13 (Doucet et al., J. Clin. Invest. 101:2129-2139, 1998.) that induce eotaxin production in lung epithelial cells. To test this hypothesis, we employed a murine primary lung assays, where lung cells were harvested from FVB/NJ mice as described in Example 5A and processed for in vitro analysis as described in Example 6 for human primary lung culture. Cells were incubated with or without 20 ng/ml recombinant mIL-9 for 48 hours. After 48 hours, conditioned supernatant was collected and analyzed for murine eotaxin production using an eotaxin ELISA kit (R&D Systems). Recombinant murine eotaxin was used to generate a standard curve. […] A culture derived from IL-9 transgenic mouse lung (TG5 lane) was used as a positive control. […]

ICACC-1 = ICACC-1 RNA expression in lung after intratracheal IL-9 (RT-PCR); type: in vivo, mouse; conditions: C57B6 mice, 50 μl of 0.1 mg/ml IL-9 intratracheal daily for ten days, FIG. 8
Protocol: Message was analyzed by PCR as described (Nicolaides et al., 1995) and via Northern blot. Primers used to generate murine ICACC-1 message were; sense 5′-[…]-3′ (SEQ ID NO:7) (nucleotides 689-712) and antisense 5′-[…]-3′ (SEQ ID NO:8) (nucleotides 1041-1064) which produce a gene product of 376 bp. DHFR was assayed as an internal control to measure for cDNA integrity using primers previously described (Nicolaides et al., 1991). Amplification conditions used were 95° C. for 30 seconds, 58° C. for 1.5 minutes and 72° C. for 1.5 minutes for 35 cycles. For Northern blot analysis, total RNA derived from Tg5 or FVB lungs was electrophoresed on 1.5% formaldehyde gels, transferred to nylon membranes and probed with a DNA fragment comprising the murine ICACC-1 cDNA.
To confirm that the expression of IL-9 was critically related to the expression of ICACC-1 and to control for genetic background specifically, recombinant murine IL-9 was introduced into the lung of murine strain C57B6. Recombinant IL-9 was instilled into the trachea of anesthetized mice by addition of 50 μl of a 0.1 mg/ml IL-9 solution or vehicle alone (0.1% bovine serum albumin) daily for ten days. […]
Expression of ICACC-1 RNA was measured as described in Example 3.

| Molecule | eotaxin production inhibited (IL-9 induced eotaxin) [%] | ICACC-1 RNA expression in lung (RT-PCR) (ICACC-1) |
| --- | --- | --- |
| O=S(=O)(O)c1cc(N=C=S)ccc1C=Cc1ccc(N=C=S)cc1S(=O)(=O)O [DIDS] | 33 | – |
| CC(=O)Nc1ccc(C=Cc2ccc(N=C=S)cc2S(=O)(=O)O)c(S(=O)(=O)O)c1 [SITS] | 41 | – |
| B1 | – | expression increased |
